From PMC8398766, “Do Small Molecules Activate the TrkB Receptor in the Same Manner as BDNF? Limitations of Published TrkB Low Molecular Agonists and Screening for Novel TrkB Orthosteric Agonists” (Pharmaceuticals, 2021)

B1: BDNF: Brain-derived neurotrophic factor, endogenous TrkB receptor agonist (protein, UniProt P23560 19-247, looked up)
Neurotrophic factor BDNF …: APMKEANIRGQGGLAYPGVRTHGTLESVNGPKAGSRGLTSLADTFEHVIEELLDEDQKVRPNEENNKDADLYTSRVMLSSQVPLEPPLLFLLEEYKNYLDAANMSMRVRRHSDPARRGELSVCDSISEWVTAADKKTAVDMSGGTVTVLEKVPVSKGQLKQYFYETKCNPMGYTKEGCRGIDKRHWNSQCRTTQSYVRALTMDSKKRIGWRFIRIDTSCVCTLTIKRGR

biological target: T1, exTrkB (Homo sapiens, UniProt Q16620); assay: MST binding affinity (Kd) determination; settings: non-binding compounds given as 0
T1 construct: human TrkB receptor (exTrkB), residues 1−430, was cloned into the pCMV2 expression vector; made in house; host or cells: ExpiCHO-S cells
Protocol: The gene encoding the extracellular domain of the human TrkB receptor (exTrkB), residues 1−430, was cloned into the pCMV2 expression vector. Protein expression was performed in suspension-cultivated mammalian ExpiCHO-S cells using the ExpiFectamine (Thermo Scientific, Thermo Fisher Scientific, Waltham, MA, USA) transfection reagent. The secreted protein was purified using a four-step protocol. Clarified culture medium was precipitated with ammonium sulfate added to a final concentration of 1.5 M and centrifuged (235,000× g, 60 min at 4 °C). The supernatant after centrifugation was applied on a HiTrap Phenyl column (GE Healthcare, Chicago, IL, USA) equilibrated with buffer A (25 mM Tris, 1 mM DTT; pH 7.5) with 1.5 M ammonium sulfate. Bound proteins were eluted with a linear gradient of buffer A. The eluted proteins were dialyzed overnight in buffer A and loaded on a CaptoQ ImpRes column (GE Healthcare) equilibrated with buffer A with 50 mM NaCl. The bound proteins were eluted with a linear gradient of buffer A with 1 M NaCl. The fractions containing exTrkB protein were pooled, and MnCl2 and CaCl2 (1mM final concentration each) were added. The sample was purified on a HiTrap Con A 4B column (GE Healthcare) equilibrated with buffer B (25 mM Tris, 0.5 M NaCl, 1 mM MnCl2, 1 mM CaCl2; pH 7.5) and eluted with buffer C (25 mM Tris, 0.1 M NaCl, 0.4 M α-D-glucopyranoside; pH 6.5). To improve the protein recovery, buffer C flow was paused nine times during elution. The eluted fractions were concentrated and purified by size-exclusion chromatography on a HiLoad 16/600 Superdex 200 column (GE Healthcare) in buffer A with 0.5 M NaCl. The protein samples were concentrated to 1 mg/mL, and buffer was exchanged (PBS; pH 7.4). Samples were frozen in liquid nitrogen and stored at −80 °C. The protein purity was estimated by SDS–PAGE followed by Coomassie Brilliant Blue staining. The protein concentration was determined from the absorption at 280 nm using an UV NanoDrop 1000 spectrophotometer (Thermo Scientific).
The exTrkB was labeled with a Monolith Protein Labeling Kit RED-NHS 2nd Generation (NanoTemper Technologies GmbH, Munich, Germany) according to the manufacturer’s protocol. The labelling efficiency was always determined spectrophotometrically with NanoPhotometer® NP80 (Impel) in line with the manufacturer’s recommendations. Labelled exTrkB protein was aliquoted and stored at −80 °C to avoid repeated freeze–thaw cycles. Before analysis, the exTrkB protein was thawed on ice and diluted with MST buffer (50 mM Tris pH = 8; 150 mM NaCl; 10 mM MgCl2; 0.1% Tween20) to the desired concentration.
For primary screening (single-point MST experiments for signal amplitude determination), each of the 987 screened compounds were diluted in MST buffer + 0.1% Tween20 to a final concentration of 0.5 mM. The tested compounds were mixed with exTrkB solution (the final concentration of exTrkB was 20 nM) and centrifuged (10,000× g, 4 min at 4 °C) to eliminate protein and compound aggregates. Before loading to capillaries (Monolith NT.115 Capillaries, NanoTemper Technologies GmbH), the samples were incubated for 5 min at 25 °C and then placed into the MST apparatus (Monolith, NanoTemper Technologies GmbH). The experiments were performed using nano-blue excitation, LED light adjusted to 20% excitation power, and MST power set to medium, and the fluorescence signal during thermophoresis was detected after 30 s. Single-point MST experiments were performed by the determination of the amplitude signal between the unbound and bound state between the molecule and exTrkB, which was analyzed using the MO.Control Software version 1.6 (NanoTemper Technologies GmbH). A reference sample containing only exTrkB and the equivalent DMSO concentration (v/v) was included in each individual MST experiment. At least three technical replicates were prepared for each of the tested compounds. A binding affinity study was performed for 113 of the selected compounds at 16 concentration points. […]

T1 sequence (Q16620 32-430): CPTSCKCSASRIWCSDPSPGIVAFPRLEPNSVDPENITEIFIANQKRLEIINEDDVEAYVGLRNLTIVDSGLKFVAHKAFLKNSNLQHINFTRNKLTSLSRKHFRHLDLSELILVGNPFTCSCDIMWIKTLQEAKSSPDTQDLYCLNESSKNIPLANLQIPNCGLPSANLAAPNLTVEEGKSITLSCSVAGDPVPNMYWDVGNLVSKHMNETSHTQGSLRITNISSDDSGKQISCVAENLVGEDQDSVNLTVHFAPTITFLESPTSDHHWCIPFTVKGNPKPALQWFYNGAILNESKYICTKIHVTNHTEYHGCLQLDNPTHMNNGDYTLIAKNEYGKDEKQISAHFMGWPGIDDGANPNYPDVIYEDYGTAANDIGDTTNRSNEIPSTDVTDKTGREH

Row | Molecule | Kd [nM]
1 | O=C1C(O)=C(c2c[nH]c3ccccc23)C(=O)C(O)=C1c1c[nH]c2ccccc12 [CPL503052, didemethylasterriquinone D] | 2600
2 | O=c1cc(-c2ccccc2)oc2c(O)c(O)ccc12 [7,8-DHF, 7,8-dihydroxyflavone] | 1300
3 | C=CC(C)(C)c1[nH]c2ccccc2c1C1=C(O)C(=O)C(c2c[nH]c3c(CC=C(C)C)cccc23)=C(O)C1=O [DMAQ-B1] | 5600
4 | B1 | 93
